Assay results from patent US12084462B2, “Spiro bicyclic inhibitors of menin-MLL interaction” (Janssen Pharmaceutica NV, priority 2016, dated 2024).
Where “and” joins values, the source holds several entries; their conditions need not be identical. Identical values can stand only once. Like-named read-outs stand apart in the source and are kept apart here.

How the values were obtained:
[1] = system: MV-4-11; assay: Proliferation assay (spheroid assay) MV-4-11; type: cell-based, human
Procedure, shortened: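 Cells grown as spheroids in ultra-low attachment round-bottom wells with compound at varied concentrations (0.3% DMSO) for 8 d at 37 °C; confluence imaged every 4 h. AUC of confluence over time (t=0 baseline) expressed as % of vehicle control; absolute IC50 from nonlinear least-squares fit.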

[2] = system: MOLM14; assay: Proliferation assay (spheroid assay) MOLM14; type: cell-based, human
Procedure: (§1) The anti-proliferative effect of menin/MLL protein/protein interaction inhibitor test compounds was assessed in human leukemia cell lines. The cell lines MV-4-11 and MOLM14 harbor MLL translocations and express the MLL fusion proteins MLL-AF4 and MLL-AF9, respectively, as well as the wildtype protein from the second allele. […] K562 and KG1 were used as a control cell lines containing two MLL wildtype alleles in order to exclude compounds that display general cytotoxic effects.
(§2) MV-4-11 and MOLM14 were cultured in RPMI-1640 (Sigma Aldrich) supplemented with 10% fetal bovine serum (HyClone), 2 mM L-glutamine (Sigma Aldrich) and 50 μg/ml gentamycin (Gibco). K562 were propagated in RPMI-1640 (Sigma Aldrich) supplemented with 20% fetal bovine serum (HyClone), 2 mM L-glutamine (Sigma Aldrich) and 50 μg/ml gentamycin (Gibco). KG1 were cultured in Iscove's MDM (Gibco) supplemented with 20% fetal bovine serum (HyClone), 2 mM L-glutamine (Sigma Aldrich) and 50 μg/ml gentamycin (Gibco).
(§3) In order to assess the anti-proliferative effects, 1,500 MV-4-11, 300 MOLM14, 750 K562 or 1,300 KG1 cells were seeded in 200 μl media per well in 96-well round bottom, ultra-low attachment plates (Costar, catalogue number 7007). Cell seeding numbers were chosen based on growth curves to ensure linear growth throughout the experiment. Test compounds were added at different concentrations and the DMSO content was normalized to 0.3%. Cells were incubated for 8 d at 37° C. and 5% CO2. Spheroid like growth was monitored in real-time by live-cell imaging (IncuCyteZOOM, Essenbio, 4× objective) acquiring one image every four hours for 8 d. Confluence (%) as a measure of spheroid size was determined using an integrated analysis tool.
(§4) In order to determine the cumulative effect of the test compounds over time, the area under the curve (AUC) in a plot of confluence against time was calculated. Confluence at the beginning of the experiment (t=0) was used as baseline for the AUC calculation.
(§5) Absolute IC50 values were calculated according to the following procedure: % Control=(AUC sample/AUC control)*100 AUC control=mean AUC of control values (cells without compound/DMSO as vehicle control)
(§6) A non-linear curve fit was applied using the least squares (ordinary) fit method to the plot of % control versus compound concentration. Based on this, the absolute IC50 value (half maximal inhibitory concentration of the test compound causing an anti-proliferative effect of 50% relative to the vehicle control) was calculated.

[3] = system: KG1; assay: Proliferation assay (spheroid assay) KG1, control cell line; type: cell-based; settings: Homo sapiens
Procedure: as §1, §2, §3, §4, §5, §6

[4] = target: T1, menin (Homo sapiens, UniProt O00255, T541A); assay: Menin/MLL fluorescence polarization (FP) assay; type: binding
T1 sequence (O00255 with tags, fused parts or gaps T541A): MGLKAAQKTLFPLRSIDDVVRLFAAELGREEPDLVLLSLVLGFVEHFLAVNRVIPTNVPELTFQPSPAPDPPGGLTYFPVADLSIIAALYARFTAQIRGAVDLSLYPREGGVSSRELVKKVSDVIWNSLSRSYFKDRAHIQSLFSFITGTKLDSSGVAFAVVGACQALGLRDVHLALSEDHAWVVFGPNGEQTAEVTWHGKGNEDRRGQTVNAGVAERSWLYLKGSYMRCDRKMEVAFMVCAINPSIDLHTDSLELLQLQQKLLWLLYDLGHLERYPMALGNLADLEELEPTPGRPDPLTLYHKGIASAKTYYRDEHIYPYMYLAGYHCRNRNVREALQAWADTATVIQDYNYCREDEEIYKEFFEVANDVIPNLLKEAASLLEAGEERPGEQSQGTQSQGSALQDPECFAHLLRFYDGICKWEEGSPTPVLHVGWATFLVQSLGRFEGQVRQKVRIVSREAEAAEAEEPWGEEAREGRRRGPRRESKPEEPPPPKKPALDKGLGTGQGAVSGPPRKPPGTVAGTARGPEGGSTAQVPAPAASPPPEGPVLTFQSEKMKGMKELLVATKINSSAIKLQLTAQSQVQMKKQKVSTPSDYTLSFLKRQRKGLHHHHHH
Procedure: 1) Menin/MLL Fluorescence Polarization Assay
To a non-surface binding, black 384-well microtiter plate was added 50 nL 160× test compound in DMSO and 4 μL 2× menin in assay buffer (40 mM Tris·HCl, pH 7.5, 50 mM NaCl, 1 mM DTT and 0.001% Tween 20). After incubation of test compound and menin for 10 min at ambient temperature, 4 μL 2×FITC-MBM1 peptide (FITC-β-alanine-SARWRFPARPGT-NH2 (SEQ ID NO: 2)) in assay buffer was added, the microtiter plate centrifuged at 1000 rpm for 1 min and the assay mixtures incubated for 15 min at ambient temperature. The relative amount of menin·FITC-MBM1 complex present in an assay mixture is determined by measuring the fluorescence polarization (FP) of the FITC label with a BMG Pherastar plate reader (ex. 485 nm/em. 520 nm) at ambient temperature. The final concentrations of reagents in the binding assay are 100 nM menin, 5 nM FITC-MBM1 peptide and 0.625% DMSO in assay buffer. Dose-response titrations of test compounds are conducted using an 11 point, three-fold serial dilution scheme, starting at 31 μM.
Compound potencies were determined by first calculating % inhibition at each compound concentration according to equation 1: % inhibition=((HC−LC)−(FP^compound−LC))/(HC−LC))*100 (Eqn 1)
Where LC and HC are the FP values of the assay in the presence or absence of a saturating concentration of a compound that competes with FITC-MBM1 for binding to menin, and FP^compound is the measured FP value in the presence of the test compound. HC and LC FP values represent an average of at least 16 replicates per plate. […] 2) Proliferation Assay

[5] = system: K562; assay: Proliferation assay (spheroid assay) K562, control cell line; type: cell-based; settings: Homo sapiens
Procedure: as §1, §2, §3, §4, §5, §6

[6] = Homo sapiens, MV4-11, MV-4-11, averaged values, read-out: Spheroid assay MV-4-11 (IC50 (μM))
[7] = Homo sapiens, MOLM-14, MOLM14, averaged values, read-out: Spheroid assay MOLM14 (IC50 (μM))
[8] = KG-1, KG1 control cell line, averaged values, read-out: Spheroid assay KG1 (IC50 (μM))
[9] = MV-4-11 (MLL-AF4), 8 d, absolute IC50 from AUC of confluence, individual measurements (not averaged), read-out: (2) Spheroid assay MV-4-11 (IC50 (μM))
[10] = 100 nM menin, 5 nM FITC-MBM1 peptide, individual measurements (not averaged), read-out: (1) Menin FP assay (IC50 (μM))
[11] = Homo sapiens, MOLM-14, 192 h, MOLM14 (MLL-AF9), 8 d, absolute IC50 from AUC of confluence, individual measurements (not averaged), read-out: (2) Spheroid assay MOLM14 (IC50 (μM))
[12] = MOLM14 (MLL-AF9), 8 d, absolute IC50 from AUC of confluence, individual measurements (not averaged), read-out: (2) Spheroid assay MOLM14 (IC50 (μM))
[13] = averaged values over all measurements, read-out: Menin FP assay (IC50 (μM))
[14] = K562 control cell line, averaged values, read-out: Spheroid assay K562 (IC50 (μM))

| SMILES | IC50 [1, 6] [µM] | IC50 [2, 7] [µM] | IC50 [3, 8] [µM] | other results |
| --- | --- | --- | --- | --- |
| CC(Cc1ccc(F)cc1)N1CC2(CCN(c3ncnc4sc(CC(F)(F)F)cc34)C2)C1 (stereo not shown) [Compound 84] | 0.58 | 1.5 | > 15 | – |
| N#Cc1cc2cc(CN3CC4(CCN(c5ncnc6sc(CC(F)(F)F)cc56)C4)C3)ccc2[nH]1 [Compound 17] | – | – | – | IC50 [1, 9]: 4.9 µM and 0.76 µM and 0.84 µM; IC50 [4, 10]: 0.054 µM; IC50 [2, 11]: 3.4 µM; IC50 [2, 12]: 2.3 µM; IC50 ([3]; KG-1, 192 h, KG1 (MLL wildtype control), 8 d, absolute IC50 from AUC of confluence, individual measurements (not averaged), read-out: (2) Spheroid assay KG1 (IC50 (μM))): 11 µM |
| Fc1ccc(CN2CC[C@]3(CCN(c4ncnc5sc(CC(F)(F)F)cc45)C3)C2)cc1 (single isomer, unassigned) [Compound 291] | 0.66 | 1.2 | > 15 | – |
| CC(C)C(Cc1ccccc1)N1CC2(CCN(c3ncnc4sc(CC(F)(F)F)cc34)C2)C1 (stereo not shown) [Compound 182] | 0.78 | 1.9 | > 15 | – |
| CC(C1CCOCC1)N1CC2(CCN(c3ncnc4sc(CC(F)(F)F)cc34)C2)C1 (single isomer, unassigned) [Compound 155] | 0.7 | 1.2 | > 15 | – |
| CC(C)[C@@H](N1CC2(CCN(c3ncnc4sc(CC(F)(F)F)cc34)C2)C1)C1(F)CN(C)C1 [Compound 304a] | 0.44 | 1.3 | > 15 | – |
| Fc1ccc(CN2CC[C@@]3(CCN(c4ncnc5sc(CC(F)(F)F)cc45)C3)C2)cc1 (single isomer, unassigned) [Compound 292] | 0.29 | 1.5 | > 15 | – |
| CC(C)C(CC1CCNCC1)N1CC2(CCN(c3ncnc4sc(CC(F)(F)F)cc34)C2)C1 (stereo not shown) [Compound 315] | 0.32 | 1.5 | > 15 | – |
| CC(C)C(c1cnn(CCO)c1)N1CC2(CCN(c3ncnc4sc(CC(F)(F)F)cc34)C2)C1 (stereo not shown) [Compound 62] | 0.64 | 4 | > 15 | – |
| CC(C)CN1CC[C@@]2(CCN(c3ncnc4sc(CC(F)(F)F)cc34)C2)C1 [Compound 184] | 0.97 | – | > 15 | – |
| CC(C)C(N1CC2(CCN(c3ncnc4sc(CC(F)(F)F)cc34)C2)C1)C1(F)CNC1 (stereo not shown) [Compound 269] | 0.67 | 4.6 | > 15 | – |
| CC(C)C(CC1CCN(C)CC1)N1CC2(CCN(c3ncnc4sc(CC(F)(F)F)cc34)C2)C1 (stereo not shown) [Compound 316] | 0.4 | 0.96 | > 3.7 | – |
| CC(C)[C@@H](c1cnn(C)c1)N1CC[C@]2(CCN(c3ncnc4sc(CC(F)(F)F)cc34)C2)C1 (single isomer, unassigned) [Compound 189] | 0.92 | – | > 15 | – |
| CC(CN1CC2(CCN(c3ncnc4sc(CC(F)(F)F)cc34)C2)C1)c1ccc(F)cc1 (stereo not shown) [Compound 317] | 0.77 | – | > 15 | – |
| CC(C)C(c1cnn(C(C)C)c1)N1CC2(CCN(c3ncnc4sc(CC(F)(F)F)cc34)C2)C1 (stereo not shown) [Compound 214] | 0.76 | 1.4 | > 15 | – |
| FC(F)(F)Cc1cc2c(N3CC4(CCN(Cc5ccccc5)C4)C3)ncnc2s1 [Compound 16] | – | – | – | IC50 [1, 9]: 4.7 µM and > 15 µM; IC50 [4, 10]: 0.134 µM; IC50 [2, 11]: 9.3 µM; IC50 [2, 12]: 8.7 µM; IC50 ([5]; 192 h, K562 (MLL wildtype control), 8 d, absolute IC50 from AUC of confluence, individual measurements (not averaged), read-out: (2) Spheroid assay K562 (IC50 (μM))): > 15 µM |
| FC(F)(F)Cc1cc2c(N3CCC[C@]4(CCN(Cc5ccccc5)C4)C3)ncnc2s1 (single isomer, unassigned) [Compound 21a] | 6.9 | 12.1 | – | IC50 [4, 13]: 0.49 µM; IC50 [5, 14]: > 15 µM |
| CC(C)[C@@H](c1cn[nH]c1)N1CC2(CCN(c3ncnc4sc(CC(F)(F)F)cc34)C2)C1 [Compound 245] | 0.32 | 2 | > 15 | – |
| FC(F)(F)Cc1cc2c(N3CC[C@@]4(CCN(Cc5ccccc5)C4)C3)ncnc2s1 (single isomer, unassigned) [Compound 20a] | 0.96 | 5 | – | IC50 [4, 13]: 0.076 µM; IC50 [5, 14]: > 15 µM |
| FC(F)(F)Cc1cc2c(N3CCC4(CN(Cc5cn6ccccc6n5)C4)C3)ncnc2s1 [Compound 5] | 6.4 | 30.6 | – | IC50 [4, 13]: 0.67 µM; IC50 [5, 14]: > 15 µM |
